The structures appear in SMILES notation. Converted amounts (≈) assume the structure as drawn.

Consider one compound from ChEMBL document CHEMBL3046458, “Pyraclostrobin sensitivity of baseline and fungicide exposed isolates of Pyrenophora tritici-repentis” (Crop Prot, 2012).

Common to all, as to assay type: functional, organism-based
In assay [1] the test system is Pyrenophora tritici-repentis. Nature of the assay: Antifungal activity against Pyrenophora tritici-repentis isolate Ptr 92 145-2-4 assessed as inhibition of conidia germination after 6 hr incubation. The following applies: Ptr 92 145-2-4, 6 h.
The subject of assay [2] is Pyrenophora tritici-repentis. Kind of assay: Antifungal activity against Pyrenophora tritici-repentis isolate Ptr 92 115-2-3 assessed as inhibition of conidia germination after 6 hr incubation in presence of SHAM. The note with it: Ptr 92 115-2-3, 6 h.
In assay [3] the test system is Pyrenophora tritici-repentis. Kind of assay: Antifungal activity against Pyrenophora tritici-repentis isolate Ptr 90 DL-22 assessed as inhibition of conidia germination after 6 hr incubation in presence of SHAM. The following applies: Ptr 90 DL-22, 6 h.
The test system of assay [4] is Pyrenophora tritici-repentis. Kind of assay: Antifungal activity against Pyrenophora tritici-repentis isolate Ptr 90 P7d assessed as inhibition of conidia germination after 6 hr incubation in presence of SHAM.
The subject of assay [5] is Pyrenophora tritici-repentis. Kind of assay: Antifungal activity against Pyrenophora tritici-repentis isolate Ptr 92 148-1-1 assessed as inhibition of conidia germination after 6 hr incubation in presence of SHAM. The following applies: Ptr 92 148-1-1, 6 h.
Assay [6] has as its system Pyrenophora tritici-repentis. Nature of the assay: Antifungal activity against Pyrenophora tritici-repentis isolate Ptr 92 115-2-3 assessed as inhibition of conidia germination after 6 hr incubation. The note with it: Ptr 92 115-2-3, 6 h.
Assay [7] concerns Pyrenophora tritici-repentis. Nature of the assay: Antifungal activity against Pyrenophora tritici-repentis isolate Ptr 86-4 assessed as inhibition of conidia germination after 6 hr incubation in presence of SHAM. The note with it: Ptr 86-4, 6 h.
Assay [8] concerns Pyrenophora tritici-repentis. Kind of assay: Antifungal activity against Pyrenophora tritici-repentis isolate Ptr 92 119-2-3 assessed as inhibition of conidia germination after 6 hr incubation. The note with it: Ptr 92 119-2-3, 6 h.
Assay [9] relates to Pyrenophora tritici-repentis. Nature of the assay: Antifungal activity against Pyrenophora tritici-repentis isolate Ptr 4b assessed as inhibition of conidia germination after 6 hr incubation.
In assay [10] the test system is Pyrenophora tritici-repentis. Nature of the assay: Antifungal activity against Pyrenophora tritici-repentis isolate Ptr 92 145-2-4 assessed as inhibition of conidia germination after 6 hr incubation in presence of SHAM. The following applies: Ptr 92 145-2-4, 6 h.
Assay [11] relates to Pyrenophora tritici-repentis. Kind of assay: Antifungal activity against Pyrenophora tritici-repentis isolate Ptr 92 148-1-1 assessed as inhibition of conidia germination after 6 hr incubation. The note with it: Ptr 92 148-1-1, 6 h.
In assay [12] the test system is Pyrenophora tritici-repentis. Kind of assay: Antifungal activity against Pyrenophora tritici-repentis isolate Ptr 92 119-2-3 assessed as inhibition of conidia germination after 6 hr incubation in presence of SHAM. The following applies: Ptr 92 119-2-3, 6 h.
The test system of assay [13] is Pyrenophora tritici-repentis. Kind of assay: Antifungal activity against Pyrenophora tritici-repentis isolate Ptr 1A assessed as inhibition of conidia germination after 6 hr incubation in presence of SHAM.
Assay [14] concerns Pyrenophora tritici-repentis. Kind of assay: Antifungal activity against Pyrenophora tritici-repentis isolate Ptr 4b assessed as inhibition of conidia germination after 6 hr incubation in presence of SHAM.
Assay [15] relates to Pyrenophora tritici-repentis. Nature of the assay: Antifungal activity against Pyrenophora tritici-repentis isolate Ptr 90 P7d assessed as inhibition of conidia germination after 6 hr incubation.
Assay [16] concerns Pyrenophora tritici-repentis. Nature of the assay: Antifungal activity against Pyrenophora tritici-repentis isolate Ptr 90 DL-22 assessed as inhibition of conidia germination after 6 hr incubation. The note with it: Ptr 90 DL-22, 6 h.
In assay [17] the test system is Pyrenophora tritici-repentis. Kind of assay: Antifungal activity against Pyrenophora tritici-repentis isolate Ptr 86-4 assessed as inhibition of conidia germination after 6 hr incubation. The following applies: Ptr 86-4, 6 h.
Assay [18] relates to Pyrenophora tritici-repentis. Kind of assay: Antifungal activity against Pyrenophora tritici-repentis isolate Ptr 92 120-2-2 assessed as inhibition of conidia germination after 6 hr incubation. The following applies: Ptr 92 120-2-2, 6 h.
The subject of assay [19] is Pyrenophora tritici-repentis. Nature of the assay: Antifungal activity against Pyrenophora tritici-repentis isolate Ptr 92 120-2-2 assessed as inhibition of conidia germination after 6 hr incubation in presence of SHAM. The following applies: Ptr 92 120-2-2, 6 h.
Assay [20] has as its system Pyrenophora tritici-repentis. Nature of the assay: Antifungal activity against Pyrenophora tritici-repentis isolate Ptr 1A assessed as inhibition of conidia germination after 6 hr incubation.

Consider `COC(=O)N(OC)c1ccccc1COc1ccn(-c2ccc(Cl)cc2)n1` [PYRACLOSTROBIN], for which the EC50 in [1] worked out at 3.8 ng/mL (≈ 0.0098 µM); in assay [2], 2.3 ng/mL; in assay [3], 1.6 ng/mL; in assay [4], 1.6 ng/mL; in assay [5], 2.3 ng/mL; in assay [6] it was 12.4 ng/mL (≈ 0.032 µM). Moreover, the EC50 is 1.6 ng/mL in assay [7]; 3.8 ng/mL (≈ 0.0098 µM) in [8]; 3.8 ng/mL (≈ 0.0098 µM) in [9]; 1.5 ng/mL in [10]; 5.1 ng/mL (≈ 0.0132 µM) in assay [11]; 2 ng/mL in assay [12]. Also, the EC50 came out at 2.2 ng/mL in [13]; 1.6 ng/mL in [14]; 3.3 ng/mL (≈ 0.00851 µM) in assay [15]; 11.8 ng/mL (≈ 0.0304 µM) in assay [16]; 3.4 ng/mL (≈ 0.00877 µM) in [17]; 8.1 ng/mL (≈ 0.0209 µM) in [18]. In addition, the concentration for a half-maximal effect (EC50) in assay [19] came out at 2.1 ng/mL; in assay [20] it was 9.9 ng/mL (≈ 0.0255 µM).

By EC50 is commonly meant the concentration giving half of the maximal effect.
